Reference: publication PMC7999199, “Novel Cationic Meso-Arylporphyrins and Their Antiviral Activity against HSV-1” (Pharmaceuticals, 2021)

Columns and labels:
[1] = Micelle size of Pluronic F-127 formulations by dynamic light scattering; type: physicochemical; settings: Pluronic F-127 micelles, concentration 3·10^−6 M
Protocol: The size of obtained micelles for the compounds 3a,b was determined by the dynamic light scattering (DLS) method. The micelle size for compounds 3a,b was 17.53 nm and 14.69 nm, respectively, at concentrations of 3·10^−6 M (Figure 4a,b). It has previously been reported that a similar micelle size increased the efficiency and circulation of the encapsulated drug in the blood due to the small scale, which avoided the capture of nanoparticles by the reticular endothelial system.
NMR (^1H and ^13C) spectra of the test solutions in CDCl3 or (CD3OD) were recorded on a Bruker MSL-300 pulse Fourier transform spectrometer (Bruker, Billerica, MA, USA) at frequencies of 300.3 and 75.49 MHz, respectively, with internal deuterium stabilization. Tetramethylsilane was used as an external standard. IR spectra (4000–500 cm^–1) were recorded on Infralyum FT 02 Fourier spectrometer (Lumex Instruments Research and Production Company, Moscow, Russia) with a resolution of 1 cm^−1. Samples were prepared as KBr tablets. Dynamic light scattering was measured using Malvern Zetasizer Nano ZS (Malvern, United Kingdom). […] Mass spectra were recorded using an 1100 LCMSD liquid chromatograph (Agilent Technologies, Santa Clara, CA, USA) equipped with a mass spectrometric chemical ionization detector at atmospheric pressure (HIAD, APCI, ESI) and with a UV spectrophotometric detector (DAD). […]

[2] = tested on: HSV-1 (strain RD); assay: Virucidal effect on HSV-1: virus incubated 2 h with compound, residual titer by CPE in Vero cells; type: cell-based, herpes simplex virus type 1; settings: for IC50: Human alphaherpesvirus 1, Vero, HSV-1
Protocol: Next, the virucidal effect of the drugs on HSV-1 in PBS and Pluronic F-127 was studied, in accordance with CC50 (Figure 5). The virucidal activity tests were performed by incubating HSV-1 with different concentrations of 3a,b and TMePyP for 2 h at a temperature of 36.8 °C and 5% CO2. Untreated viral suspensions were used as a control. Then, samples were added to a Vero culture seeded in 96-well plates, and the residual virus content was evaluated by developing a cytopathic effect on the fourth day of cultivation.
HSV-1 at tenfold dilutions DMEM-1% FCS (900 µL) was incubated with different concentration of the compounds (100 µL) at the final concentration ranging from 3 µM to 100 µM in DMEM-1% FCS or without of compound, each sample in volume 1 mL, for 2 h at 36.8 °C in 5% CO2 atmosphere. After treatment, the samples were applied to the Vero cell (the day before, cells were seeded at the rate of 15,000 cells/well in […] DMEM-5% FCS in 96-well plates) monolayers in 96-well plates (100 µL/well), and, after 4 days of cultivation at 36.8 °C in 5% CO2 atmosphere, titers were calculated based on the development of CPE, and the inhibitory activity of each compounds was calculated in relation to the control (HSV-1 without compounds). Data are reported as means of three independent assays, each run in triplicate.
Figure 5 Virucidal activity of 3a (a), 3b (b), TMePyP (c) dissolved in PBS and Pluronic F-127 regarding HSV-1. The results are presented as the virus titer percentage, with the porphyrin regarding the virus titer in control, which was taken as 100%. Each point represents the mean ± deviation of three experiments with three replicates.
Fig. 15S. Virucidal activity of 3a (A), 3b (B), TMePyP (C) compounds dissolved in PBS and Pluronic F127 regarding to HSV-1. HSV-1 at tenfold dilutions DMEM-1%FCS was incubated with different concentration of the compounds ranging from 3 µM/L to 100 µM/L in DMEM-1% FCS or without of compound , each sample in volume 1mL, for 2 hours at 36.8°C in 5% CO 2 atmosphere. After treatment the samples were applied to the Vero DMEM-5%FCS in 96 wells plates) monolayers in 96 wells plates (100 µL/well). and after 4 days of cultivation at 36.8 °C in 5% CO 2 atmosphere titers were calculated based on the development of CPE and the inhibi-tory activity of each compounds was calculated in relation to the control (HSV -1 without compounds). Data are reported as means of three independent assays, each run in tripli cate. The results were processed using the GraphPad Prism 5 program. […]

[3] = Pluronic F-127 (F127) micellar formulation

Compound | micelle size (DLS) [1] [nm] | IC50 [2, 3] [µM] | concentration showing a virucidal effect ([2]; PBS and Pluronic F-127, only at the maximum concentration) [µM] | IC50 ([2]; dissolved in PBS) [µM]
O=C(CC[n+]1ccccc1)Oc1ccc(-c2c3nc(c(-c4ccc(OC(=O)CC[n+]5ccccc5)cc4)c4ccc([nH]4)c(-c4ccc(OC(=O)CC[n+]5ccccc5)cc4)c4nc(c(-c5ccc(OC(=O)CC[n+]6ccccc6)cc5)c5ccc2[nH]5)C=C4)C=C3)cc1 [3a] | 17.53 | 99.8 | 100 | 
C[n+]1ccc(-c2c3nc(c(-c4cc[n+](C)cc4)c4ccc([nH]4)c(-c4cc[n+](C)cc4)c4nc(c(-c5cc[n+](C)cc5)c5ccc2[nH]5)C=C4)C=C3)cc1 [TMePyP, 5,10,15,20-tetrakis(1-methyl-4-pyridinio)porphyrin tetraiodide, reference compound] |  | 13.3 |  | 2.3
